Laboratory results from article PMC10372009, “Molecular basis of GDF15 induction and suppression by drugs in cardiomyocytes and cancer cells toward precision medicine” (Scientific Reports, 2023).

Legend:
GDF11 = GDF11 gene expression in 21 lung and colorectal cancer cell lines treated with BI 894999; assay type: cell-based, human; conditions: of 21 treated cell lines; 10, 35 or 100 nM, 4 h or 24 h
Excerpt: (§1) GDF15 overexpression can be both chemotherapy- and cancer-driven. Various cancer cell types were reported to overexpress GDF15, thereby exacerbating the development of cachexia. Whilst a personalized selection of chemotherapeutic agents has the potential to mitigate chemotherapy-driven GDF15 overexpression in cancer cells, it leaves basal overexpression of GDF15 unaffected. […] To test this further, we analyzed our own gene expression data of 21 lung and colorectal cancer cell lines treated with the BET inhibitor BI 894999[26]. […] Additionally, we analyzed fold-changes of GDF11 which is well known for its rejuvenating effect but also associated with cachexia, partially through upregulation of GDF15[19]. […] The more GDF15 expression was reduced, the more GDF11 expression tended to get increased upon BET inhibition in the respective cell lines (Fig. 5A).
(§2) Figure 5 GDF15 gene suppression by BET inhibitors. Effect of BET inhibition on basal GDF15 and GDF11 expression in 21 cancer cell lines and on doxorubicin-induced GDF15 overexpression in hiPSC-CMs. (A) Treatment of cancer cell lines with the BET Inhibitor BI 894999 (Supplementary Table S3). Fold-change of relative gene expression. Normalized gene expression analysis performed using RNA sequencing and qPCR, 95% confidence interval. […]

GDF15 [1] = assay: Doxorubicin-induced GDF15 mRNA expression in hiPSC-CMs, successive treatment with BET inhibitors (qPCR); assay type: cell-based, human; conditions: BET inhibitor given subsequently to doxorubicin
Excerpt: (§3) Host cells are known to contribute to elevated GDF15 levels in cachexia patients when exposed to drug toxicity. […] We plotted GDF15 fold-changes against the respective reported half maximal inhibitory concentrations (IC50) of each BET inhibitor for BRD2, BRD3 and BRD4, whenever available. GDF15 fold-change thereby meant the ratio of GDF15 expression induced by doxorubicin only and doxorubicin combined with BET inhibitor normalized to cell viability.
(§4) Cardiotoxic drug (SCREEN-WELL® Cardiotoxicity library, BML-2850, ENZO) library was prepared by serial dilution of 10 mM stocks in DMSO to 9 different concentrations ranging from 0.001 to 10 mM, which were further diluted into assay plates to final concentrations ranging from 0.001 to 10 µM. […] The final concentration of DMSO for hiPSC-CMs assay was 0.1%. To investigate the influence of BET inhibitor treatment on doxorubicin induced GDF15 mRNA expression, hiPSC-CMs were pre-treated with 20 nM or 200 nM doxorubicin for 48 h and kept in medium without compound for 24 h before 24 h treatment with either 100 nM BI 894999 or 500 nM OTX015. […] Cancer cell lines were treated with 10 nM, 35 nM or 100 nM of BI 894999 for 4 h or 24 h (Supplementary Table S3).
(§5) For GDF15 mRNA quantification, total RNA was isolated from the cells using an RNeasy kit (Qiagen, 74106) to synthesize cDNA using a Taqman Reverse Transcription kit (Applied Biosystems, N8080234). Quantitative real-time PCR analysis was performed using QuantiNova SYBR Green PCR Kit (Qiagen, 208052) on a CFX96 Real-Time System (Bio-Rad) under the following amplification conditions: 95 °C for 2 min followed by 40 cycles of 95 °C for 5 s and 60 °C for 10 s. The primer sequences are GDF15-F: 5′-[…]-3′, GDF15-R: 5′-[…]-3′, ACTB-F: 5′-[…]-3′ and ACTB-R: 5′-[…]-3′. PCR data were analyzed using a modified relative expression software tool (REST) and the expression level of GDF15 gene was normalized to that of β-actin.

GDF15 [2] = assay: Basal GDF15 gene expression in 21 lung and colorectal cancer cell lines treated with BI 894999 (RNA sequencing, qPCR); assay type: cell-based, human; conditions: of 21 treated lung and colorectal cancer cell lines; 10, 35 or 100 nM, 4 h or 24 h
Excerpt: as §1, §2

BRD4 = assay: ChIP-seq of BRD4 bound to putative enhancers near the GDF15 gene locus in AML cell lines; assay type: cell-based; conditions: 1 to 1000 nM, reanalysis of previously published ChIP-seq data ref 26
Excerpt: In 50% of NCI-60, we thereby found a correlation between drug-induced GDF15 and BRD4 expression. […]

cancer-driven cachexia = test system: cancer-driven cachexia; parameters: method as in PMID 29167426; conditions: mice; cited from earlier work
GDF15 [3] = assay: Doxorubicin-induced GDF15 secretion in hiPSC-CMs, simultaneous treatment with BET inhibitors (ELISA); assay type: cell-based, human; conditions: simultaneous 100 nM doxorubicin and 0.1 to 1000 nM BET inhibitor, 48 h
Excerpt: as §3, §4
as §5, with “β-actin. For secreted GDF15 protein quantification, cell culture medium was collected after drug treatment and stored at − 20 °C until ELISA was performed using Human GDF-15 ELISA Kit (Abcam, ab155432) according to the manufacturer’s instruction. Resulting GDF15 concentrations were normalized to non-treated control and respective relative cell viability.” for “β-actin.”
Supplementary Figure S6. (A) Fold-change of GDF15 secretion by hiPSC-CMs after simultaneous
treatment with doxorubicin and seven BET Inhibitors for 48 h. Normalized to cell viability and non-treated […]

Structure (SMILES) | number of cell lines with increased GDF11 expression (GDF11) | effect on doxorubicin-induced GDF15 overexpression (mRNA) (GDF15 [1]) | number of cell lines with significantly reduced GDF15 expression (GDF15 [2]) | BRD4 bound to putative enhancers in close vicinity to the GDF15 gene locus (BRD4) | effect on cancer-driven cachexia (cancer-driven cachexia) | effect on doxorubicin-induced GDF15 overexpression (secretion) (GDF15 [3])
CNc1nc(-c2nc3ccc(N4CCN(C)CC4)cc3n2Cc2ccccc2)cn2c(C)nnc12 [BI 894999] | 19 | suppressed | 9 | reduction of BRD4 bound to putative enhancers | – | –
Cc1sc2c(c1C)C(c1ccc(Cl)cc1)=N[C@@H](CC(=O)OC(C)(C)C)c1nnc(C)n1-2 [JQ1] | – | – | – | – | counteract cancer-driven cachexia | suppressed
